Data taken from patent US8431577B2, “Crystalline form of eszopiclone, composition, preparation and uses thereof” (Tianjin Tasly Group Co., Ltd., priority 2008, dated 2013).
Read-outs that look alike come from different tables or passages of the source.

Legend:
[1] = for Content (%) / Related substances (%) Levozopiclone / Related substances (%) Other impurities: Strong light exposure (4500±500 Lx)
Excerpt: The specimens were sampled on the 5th and 10th day respectively to measure their stability in accordance with the key stability-relevant items.

[2] = Pharmacokinetic study pre and post eating in healthy volunteers; assay type: in vivo, human; details: single oral
Description: In addition, the effect of eating food on in vivo metabolism of the drug had been evaluated. 8 subjects were randomly divided into 2 groups. In 2 tests, the subjects of each group received the drug at the same dose (6 mg) in the cases of fasting and 5 minutes after taking standard diet. The interval between two tests was 2 weeks.
After a single oral administration of the tested drug, 6 ml anticoagulant heparin venous blood samples were collected at 0th (immediately before administration), 15th minute, 30th minute, 45th minute, 60th minute, 1.5th hour, 2nd hour, 3rd hour, 4th hour, 6th hour, 8th hour, 12th hour, 16th hour and 24th hour respectively to determine the concentration of S-zopiclone. By HPLC, the plasma drug concentration of each subject had been determined at different time-points to give a concentration-time curve. The main pharmacokinetic parameters of the subjects had been calculated, including AUC, Cmax, Tmax, AUC0˜α, AUC0-t and t1/2, etc.
The crystalline form of S-zopiclone was prepared into coated tablets (3 mg S-zopiclone/tablet) in accordance with Example 1 and Example 9, single orally administrated.
Pharmacokinetic indices: the plasma drug concentration had been determined immediately before administration and at different time-points after administration of the drug to give a concentration-time curve. The main pharmacokinetic parameters had been calculated, including Cmax, Tmax, AUC0˜α, AUC0-t and t1/2, etc.
Pharmacokinetic: 3P97 statistical analysis software had been applied to calculate the main pharmacokinetic parameters.

[3] = Solubility test (Chinese Pharmacopoeia 2000 general notice); assay type: physicochemical; details: 25±2° C.
Description: Solubility test had been carried out by common solvents in accordance with the method of the GENERAL NOTICE in Chinese Pharmacopoeia (2000 Edition).
Test method: an appropriate amount of fine powder of the crystalline form of S-zopiclone was weighed accurately, into which a certain amount of solvent was added with an accuracy of ±2%. At a temperature of 25±2° C., the solution was shaken violently for 30 seconds, which is repeated at 5-minute intervals. The solubility behavior within 30 minutes had been observed.

[4] = High humidity (25° C., RH 92.5%) stability test; assay type: physicochemical; details: for Content (%) / Related substances (%) Levozopiclone / Related substances (%) Other impurities: High humidity (92.5%), 25° C.; for Weight gain: high humidity 25° C., RH 92.5%
Description: The crystalline form of S-zopiclone of the present invention was introduced into an open and colorless transparent weighing-bottle batch by batch, and placed in a closed vessel (KNO3 saturated solution, RH: 92.5%) for 10 days. The specimens were sampled on the 5th and 10th day respectively to measure their stability in accordance with the key stability-relevant items. Meanwhile, the weight of the tested drug pre-and post test was measured accurately.

[5] = High temperature (60° C.) stability test; details: for Content (%) / Related substances (%) Levozopiclone / Related substances (%) Other impurities: High temperature (60° C.)
Description: The crystalline form of S-zopiclone of the present invention was introduced into an open and colorless transparent weighing-bottle batch by batch, and placed in a thermostat container (60° C.) for 10 days. The specimens were sampled on the 5th and 10th day respectively to measure their stability in accordance with the key stability-relevant items.

[6] = 6 mg (eating), 5 minutes after standard diet

CN1CCN(C(=O)O[C@H]2c3nccnc3C(=O)N2c2ccc(Cl)cn2)CC1 [crystalline form of S-zopiclone, (+)-(S)-(4-methylpiperazine-1-carboxylate)(6-(5-chloropyridinyl-2-yl)-7-carbonyl-6,7-dihydro-5-H-pyrrolo[3,4-b]pyrazin-5-yl ester)]
stability (character, melting point, related substances versus 0th day) ([1]; 10 days of strong light exposure (4500±500 Lx)): remained stable
Content (%) ([1]; day 0): 100.06%
Related substances (%) Levozopiclone ([1]; day 0): 0.06%
Related substances (%) Other impurities ([1]; day 0): 0.09%
Content (%) ([1]; day 5): 99.77%
Related substances (%) Levozopiclone ([1]; day 5): 0.08%
Related substances (%) Other impurities ([1]; day 5): 0.10%
Content (%) ([1]; day 10): 100.02%
Related substances (%) Levozopiclone ([1]; day 10): 0.07%
Related substances (%) Other impurities ([1]; day 10): 0.11%
AUC0-∞ [2, 6]: 284.00 ± 88.36 µg/h/L
Cmax [2, 6]: 62.60 ± 18.95 ng/mL
Tmax [2, 6]: 1.75 ± 0.89 h
plasma clearance [2, 6]: 21.4 ± 7.4 L/h
t1/2 [2, 6]: 6.75 ± 1.49 h
AUC0-∞ ([2]; 6 mg (fasting)): 335.73 ± 145.57 µg/h/L
Cmax ([2]; 6 mg (fasting)): 60.69 ± 11.43 ng/mL
Tmax ([2]; 6 mg (fasting)): 1.31 ± 0.44 h
plasma clearance ([2]; 6 mg (fasting)): 16.00 ± 3.3 L/h
t1/2 ([2]; 6 mg (fasting)): 7.17 ± 2.69 h
Required amount of the solvent ([3]; acetone, 10 mg sample): 2.0 mL
Required amount of the solvent for dissolving 1 g of the sample ([3]; acetone): 200 mL
Solubility ([3]; acetone): slightly soluble
Required amount of the solvent ([3]; anhydrous ether, 10 mg sample): 90.0 mL
Required amount of the solvent for dissolving 1 g of the sample ([3]; anhydrous ether): 9000 mL
Solubility ([3]; anhydrous ether): very slightly soluble
Required amount of the solvent ([3]; chloroform, 100 mg sample): 0.6 mL
Required amount of the solvent for dissolving 1 g of the sample ([3]; chloroform): 6 mL
Solubility ([3]; chloroform): freely soluble
Required amount of the solvent ([3]; ethanol, 10 mg sample): 15.0 mL
Required amount of the solvent for dissolving 1 g of the sample ([3]; ethanol): 1500 mL
Solubility ([3]; ethanol): very slightly soluble
Required amount of the solvent ([3]; ethyl acetate, 10 mg sample): 6.0 mL
Required amount of the solvent for dissolving 1 g of the sample ([3]; ethyl acetate): 600 mL
Solubility ([3]; ethyl acetate): slightly soluble
Required amount of the solvent ([3]; hydrochloric acid (0.1 mol/L), 10 mg sample): 0.7 mL
Required amount of the solvent for dissolving 1 g of the sample ([3]; hydrochloric acid (0.1 mol/L)): 70 mL
Solubility ([3]; hydrochloric acid (0.1 mol/L)): Soluble
Required amount of the solvent ([3]; methanol, 10 mg sample): 5.0 mL
Required amount of the solvent for dissolving 1 g of the sample ([3]; methanol): 500 mL
Solubility ([3]; methanol): slightly soluble
Required amount of the solvent ([3]; water, 10 mg sample): 200 mL
Required amount of the solvent for dissolving 1 g of the sample ([3]; water): 20000 mL
Solubility ([3]; water): practically insoluble
Content (%) ([4]; day 0): 100.06%
Related substances (%) Levozopiclone ([4]; day 0): 0.06%
Related substances (%) Other impurities ([4]; day 0): 0.09%
Content (%) ([4]; day 5): 99.86%
Related substances (%) Levozopiclone ([4]; day 5): 0.08%
Related substances (%) Other impurities ([4]; day 5): 0.11%
Content (%) ([4]; day 10): 99.91%
Related substances (%) Levozopiclone ([4]; day 10): 0.07%
Related substances (%) Other impurities ([4]; day 10): 0.11%
Weight gain ([4]; 5th day): 0.07%
Weight gain ([4]; 10th day): 0.08%
stability (character, melting point, related substances versus 0th day) ([5]; 10 days of high-temperature (60° C.)): stable
Content (%) ([5]; day 0): 100.06%
Related substances (%) Levozopiclone ([5]; day 0): 0.06%
Related substances (%) Other impurities ([5]; day 0): 0.09%
Content (%) ([5]; day 5): 100.01%
Related substances (%) Levozopiclone ([5]; day 5): 0.08%
Related substances (%) Other impurities ([5]; day 5): 0.11%
Content (%) ([5]; day 10): 100.12%
Related substances (%) Levozopiclone ([5]; day 10): 0.07%
Related substances (%) Other impurities ([5]; day 10): 0.12%
